Measured values: article PMC6349357, “Computational and experimental analysis of bioactive peptide linear motifs in the integrin adhesome” (PLoS ONE, 2019)

How the values were obtained:
resting platelets = experiment: Platelet aggregation induced by peptide in resting washed platelets (activation); assay type: cell-based, human (healthy volunteers); details: for Activation, 5μM / Activation, 20μM: S3 Table, n=3; for Activation, 5μM: peptide 5 μM; for Activation, 5μM / Activation, 20μM / Activation: unit assumed; for Activation, 20μM: peptide 20 μM; for Activation: platelet aggregation in resting platelets after 6 minutes incubation with peptide, pal-peptides 20 μM, tat-peptides 50 μM, optical density, aggregometer, mean, n>=3; for Aggregation before TRAP activation, donor h: replicate donor h; for Aggregation before TRAP activation, donor i: replicate donor i; for Aggregation before TRAP activation, donor j: replicate donor j
Procedure: (§1) Blood was drawn from healthy volunteers into a syringe containing a final volume of 15% Acid Citrate Dextrose (ACD). The blood/ACD mixture was then aliquoted into 15 ml Cellstar tubes, at volumes of 5ml per tube, and centrifuged at 150 rcf for 10 minutes to obtain platelet rich plasma (PRP). PRP was then transferred to a 50ml tube using a pipette. The pH was then adjusted to 6.5. Prostaglandin (PGE1) was then added with a final concentration of 1μM. The PRP was then centrifuged at 750 rcf. After centrifugation the platelet poor plasma (PPP) was discarded and the pellet was resuspended in buffer A (6 mM dextrose, 130 mM NaCl, 9 mM NaHCO3, 10 mM sodium citrate, 10 mM Tris base, 3 mM KCl, 0.81 mM KH2PO4 and 0.9 mM MgCl26H2O, pH 7.4). A platelet concentration of 3x10^5/μl or 1x10^6/μl was obtained by dilution depending on the experiment in which they were used. Platelets were left to rest for 45 minutes and supplemented with 1.8mM calcium chloride prior to use.
(§2) A platelet concentration of 3x10^5 /μl was used when performing standard aggregations and a concentration of 1x10^6 /μl was used for sample preparation for western blot analysis. The extent of platelet aggregation was measured by quantifying the optical density of the samples using the Bio-Data PAP-8 aggregometer (platelet aggregation profiler, Horsham, PA, USA). A temperature of 37°C was maintained and samples were stirred using magnets spinning at 1100 rpm. 200 μl of washed platelets was added to each aggregation tube. Different volumes of buffer, peptide and TRAP were added to achieve the desired concentrations. Peptide/buffer was added to each well after two minutes. TRAP, with a final concentration depending on the experiment, was added 6 minutes later and data was collected for an additional 7 minutes.

TRAP-activated platelets = experiment: Inhibition of TRAP-induced platelet aggregation after pre-incubation with peptide; assay type: cell-based, human (healthy volunteers); details: for Aggregation after TRAP activation, donor h: replicate donor h; for Aggregation after TRAP activation, donor i: replicate donor i; for Aggregation after TRAP activation, donor j: replicate donor j
Procedure: as §1, §2

[1] = S3 Table, peptide 5 μM, aggregation after TRAP, n=3
[2] = S3 Table, peptide 20 μM, aggregation after TRAP, n=3
[3] = platelet aggregation induced by 4 μM TRAP in platelets pre-incubated with peptide (low value = inhibition), pal-peptides 20 μM, tat-peptides 50 μM, mean, n>=3
[4] = TRAP 4 μM, pal 20 μM, tat 50 μM

pal-KVGFFKR-TLELDRLMASLS [B20p ITGA2b-JM U TGFB1I1-LD, palmitylated chimeric peptide]
Activation, 5μM (resting platelets): 2%
Activation, 20μM (resting platelets): 2%
Platelet aggregation remaining after TRAP (low = inhibition) (TRAP-activated platelets; [1]): 71
Platelet aggregation remaining after TRAP (low = inhibition) (TRAP-activated platelets; [2]): 66

tat-KRAPQMDWSKKNELFSNL [tat-NHERF1, tat peptide from NHERF1]
Activation (resting platelets): 3%
Aggregation before TRAP activation, donor h (resting platelets; pal 20 μM, tat 50 μM): 4
Aggregation before TRAP activation, donor i (resting platelets; pal 20 μM, tat 50 μM): 3
Aggregation before TRAP activation, donor j (resting platelets; pal 20 μM, tat 50 μM): 3
Platelet aggregation remaining after TRAP (low = inhibition) (TRAP-activated platelets; [3]): 70
Aggregation after TRAP activation, donor h (TRAP-activated platelets; [4]): 71
Aggregation after TRAP activation, donor i (TRAP-activated platelets; [4]): 66
Aggregation after TRAP activation, donor j (TRAP-activated platelets; [4]): 75

tat-EGERALPSIPKLAN-(NH2) [tat-FAK_1, tat peptide from PTK2/FAK1]
Activation (resting platelets): 4%
Aggregation before TRAP activation, donor h (resting platelets; pal 20 μM, tat 50 μM): 4
Aggregation before TRAP activation, donor i (resting platelets; pal 20 μM, tat 50 μM): 4
Aggregation before TRAP activation, donor j (resting platelets; pal 20 μM, tat 50 μM): 4
Platelet aggregation remaining after TRAP (low = inhibition) (TRAP-activated platelets; [3]): 72
Aggregation after TRAP activation, donor h (TRAP-activated platelets; [4]): 76
Aggregation after TRAP activation, donor i (TRAP-activated platelets; [4]): 66
Aggregation after TRAP activation, donor j (TRAP-activated platelets; [4]): 74

pal-KVGFFKR-RMKKKDEGSYD [B17p ITGA2b-JM2 U SDC4-JM, palmitylated chimeric peptide]
Activation, 5μM (resting platelets): 1%
Activation, 20μM (resting platelets): 2%
Platelet aggregation remaining after TRAP (low = inhibition) (TRAP-activated platelets; [1]): 66
Platelet aggregation remaining after TRAP (low = inhibition) (TRAP-activated platelets; [2]): 11

pal-KVGAAKR-FAKFEEERAR [B14p ITGA2b-JM2 U ITGB3-middle1, palmitylated chimeric peptide]
Activation, 5μM (resting platelets): 2%
Activation, 20μM (resting platelets): 0%
Platelet aggregation remaining after TRAP (low = inhibition) (TRAP-activated platelets; [1]): 71
Platelet aggregation remaining after TRAP (low = inhibition) (TRAP-activated platelets; [2]): 3

KLSQLTSLLSSIE-tat [INPP5D-tat, INPP5D peptide with C-terminal tat]
Activation (resting platelets): 4%
Aggregation before TRAP activation, donor a (resting platelets; replicate donor a, pal 20 μM, tat 50 μM): 4
Aggregation before TRAP activation, donor b (resting platelets; replicate donor b, pal 20 μM, tat 50 μM): 8
Aggregation before TRAP activation, donor c (resting platelets; replicate donor c, pal 20 μM, tat 50 μM): 2
Aggregation before TRAP activation, donor d (resting platelets; replicate donor d, pal 20 μM, tat 50 μM): 3
Aggregation before TRAP activation, donor e (resting platelets; replicate donor e, pal 20 μM, tat 50 μM): 4
Platelet aggregation remaining after TRAP (low = inhibition) (TRAP-activated platelets; [3]): 74
Aggregation after TRAP activation, donor a (TRAP-activated platelets; replicate donor a, TRAP 4 μM, pal 20 μM, tat 50 μM): 70
Aggregation after TRAP activation, donor b (TRAP-activated platelets; replicate donor b, TRAP 4 μM, pal 20 μM, tat 50 μM): 77
Aggregation after TRAP activation, donor c (TRAP-activated platelets; replicate donor c, TRAP 4 μM, pal 20 μM, tat 50 μM): 76
Aggregation after TRAP activation, donor d (TRAP-activated platelets; replicate donor d, TRAP 4 μM, pal 20 μM, tat 50 μM): 75
Aggregation after TRAP activation, donor e (TRAP-activated platelets; replicate donor e, TRAP 4 μM, pal 20 μM, tat 50 μM): 73

pal-NNPLYKEA-(NH2) [pal-ITGB3_middle2, N-terminally palmitylated ITGB3 peptide NNPLYKEA]
Activation (resting platelets): 1%
Aggregation before TRAP activation, donor h (resting platelets; pal 20 μM, tat 50 μM): 2
Aggregation before TRAP activation, donor i (resting platelets; pal 20 μM, tat 50 μM): 2
Aggregation before TRAP activation, donor j (resting platelets; pal 20 μM, tat 50 μM): 1
Platelet aggregation remaining after TRAP (low = inhibition) (TRAP-activated platelets; [3]): 74
Aggregation after TRAP activation, donor h (TRAP-activated platelets; [4]): 74
Aggregation after TRAP activation, donor i (TRAP-activated platelets; [4]): 71
Aggregation after TRAP activation, donor j (TRAP-activated platelets; [4]): 78
